Laboratory results reported in the supplement of paper PMC10307832.

Experiments:
Assay in all cases: relative viability (nuclei count vs DMSO), 5 days (fraction); higher = more cells survive
CX-5461 + Navitoclax = compound: Cc1cnc(CNC(=O)c2c(=O)c3ccc(N4CCCN(C)CC4)nc3n3c2sc2ccccc23)cn1 [CX-5461] + CC1(C)CCC(c2ccc(Cl)cc2)=C(CN2CCN(c3ccc(C(=O)NS(=O)(=O)c4ccc(N[C@H](CCN5CCOCC5)CSc5ccccc5)c(S(=O)(=O)C(F)(F)F)c4)cc3)CC2)C1 [Navitoclax] (partner 0.5 µM)
In short: (§1)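 Relative viability equals treated-well nuclei counts divided by vehicle-well nuclei counts. Counts came from 4× images of lung cancer cell lines grown in 1536-well plates for 5 days after pin-tool dosing on the day after seeding. Dosing used one drug alone or a fixed anchor-drug dose plus five library-drug doses (not always all listed) in √10 steps, and values are medians of duplicate plates.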

CX-5461 + Lapatinib = compound: Cc1cnc(CNC(=O)c2c(=O)c3ccc(N4CCCN(C)CC4)nc3n3c2sc2ccccc23)cn1 [CX-5461] + CS(=O)(=O)CCNCc1ccc(-c2ccc3ncnc(Nc4ccc(OCc5cccc(F)c5)c(Cl)c4)c3c2)o1 [Lapatinib] (partner 2 µM)
In short: as §1

IMD-0354 + Luminespib = compound: O=C(Nc1cc(C(F)(F)F)cc(C(F)(F)F)c1)c1cc(Cl)ccc1O [IMD-0354] + CCNC(=O)c1noc(-c2cc(C(C)C)c(O)cc2O)c1-c1ccc(CN2CCOCC2)cc1 [Luminespib] (partner 0.01 µM)
In short: as §1

IMD-0354 + Dasatinib = compound: O=C(Nc1cc(C(F)(F)F)cc(C(F)(F)F)c1)c1cc(Cl)ccc1O [IMD-0354] + Cc1nc(Nc2ncc(C(=O)Nc3c(C)cccc3Cl)s2)cc(N2CCN(CCO)CC2)n1 [Dasatinib] (partner 0.075 µM)
In short: as §1

Cell Line: RERF-LC-KJ
- relative viability (CX-5461 + Navitoclax; first compound 0.01 µM): 0.95
- relative viability (CX-5461 + Navitoclax; first compound 0.03162 µM): 0.969
- relative viability (CX-5461 + Navitoclax; first compound 0.1 µM): 1.17
- relative viability (CX-5461 + Navitoclax; first compound 0.3162 µM): 0.887
- relative viability (CX-5461 + Navitoclax; first compound 1 µM): 0.837
- relative viability (CX-5461 + Lapatinib; first compound 0.01 µM): 0.785
- relative viability (CX-5461 + Lapatinib; first compound 0.03162 µM): 0.701
- relative viability (CX-5461 + Lapatinib; first compound 0.1 µM): 0.877
- relative viability (CX-5461 + Lapatinib; first compound 0.3162 µM): 0.637
- relative viability (CX-5461 + Lapatinib; first compound 1 µM): 0.765
- relative viability (IMD-0354 + Luminespib; first compound 0.04 µM): 1.42
- relative viability (IMD-0354 + Luminespib; first compound 0.1265 µM): 1.26
- relative viability (IMD-0354 + Luminespib; first compound 0.4 µM): 0.4
- relative viability (IMD-0354 + Luminespib; first compound 1.265 µM): 0.227
- relative viability (IMD-0354 + Luminespib; first compound 4 µM): 0.303
- relative viability (IMD-0354 + Dasatinib; first compound 0.04 µM): 1.08
- relative viability (IMD-0354 + Dasatinib; first compound 0.1265 µM): 0.727
- relative viability (IMD-0354 + Dasatinib; first compound 0.4 µM): 0.614
- relative viability (IMD-0354 + Dasatinib; first compound 1.265 µM): 0.208
- relative viability (IMD-0354 + Dasatinib; first compound 4 µM): 0.251

Cell Line: LXF-289
- relative viability (CX-5461 + Navitoclax; first compound 0.01 µM): 0.94
- relative viability (CX-5461 + Navitoclax; first compound 0.03162 µM): 0.985
- relative viability (CX-5461 + Navitoclax; first compound 0.1 µM): 0.995
- relative viability (CX-5461 + Navitoclax; first compound 0.3162 µM): 0.875
- relative viability (CX-5461 + Navitoclax; first compound 1 µM): 0.957
- relative viability (CX-5461 + Lapatinib; first compound 0.01 µM): 0.897
- relative viability (CX-5461 + Lapatinib; first compound 0.03162 µM): 0.936
- relative viability (CX-5461 + Lapatinib; first compound 0.1 µM): 0.947
- relative viability (CX-5461 + Lapatinib; first compound 0.3162 µM): 0.602
- relative viability (CX-5461 + Lapatinib; first compound 1 µM): 0.487
- relative viability (IMD-0354 + Luminespib; first compound 0.04 µM): 0.796
- relative viability (IMD-0354 + Luminespib; first compound 0.1265 µM): 0.66
- relative viability (IMD-0354 + Luminespib; first compound 0.4 µM): 0.564
- relative viability (IMD-0354 + Luminespib; first compound 1.265 µM): 0.508
- relative viability (IMD-0354 + Luminespib; first compound 4 µM): 0.192
- relative viability (IMD-0354 + Dasatinib; first compound 0.04 µM): 0.249
- relative viability (IMD-0354 + Dasatinib; first compound 0.1265 µM): 0.244
- relative viability (IMD-0354 + Dasatinib; first compound 0.4 µM): 0.207
- relative viability (IMD-0354 + Dasatinib; first compound 1.265 µM): 0.0737
- relative viability (IMD-0354 + Dasatinib; first compound 4 µM): 0.068

Cell Line: PC-14
- relative viability (CX-5461 + Navitoclax; first compound 0.01 µM): 1.18
- relative viability (CX-5461 + Navitoclax; first compound 0.03162 µM): 1.06
- relative viability (CX-5461 + Navitoclax; first compound 0.1 µM): 1.03
- relative viability (CX-5461 + Navitoclax; first compound 0.3162 µM): 0.974
- relative viability (CX-5461 + Navitoclax; first compound 1 µM): 0.979
- relative viability (CX-5461 + Lapatinib; first compound 0.01 µM): 0.328
- relative viability (CX-5461 + Lapatinib; first compound 0.03162 µM): 0.457
- relative viability (CX-5461 + Lapatinib; first compound 0.1 µM): 0.304
- relative viability (CX-5461 + Lapatinib; first compound 0.3162 µM): 0.104
- relative viability (CX-5461 + Lapatinib; first compound 1 µM): 0.337
- relative viability (IMD-0354 + Luminespib; first compound 0.04 µM): 0.143
- relative viability (IMD-0354 + Luminespib; first compound 0.1265 µM): 0.18
- relative viability (IMD-0354 + Luminespib; first compound 0.4 µM): 0.152
- relative viability (IMD-0354 + Luminespib; first compound 1.265 µM): 0.134
- relative viability (IMD-0354 + Luminespib; first compound 4 µM): 0.109
- relative viability (IMD-0354 + Dasatinib; first compound 0.04 µM): 0.334
- relative viability (IMD-0354 + Dasatinib; first compound 0.1265 µM): 0.186
- relative viability (IMD-0354 + Dasatinib; first compound 0.4 µM): 0.406
- relative viability (IMD-0354 + Dasatinib; first compound 1.265 µM): 0.0692
- relative viability (IMD-0354 + Dasatinib; first compound 4 µM): 0.102

Cell Line: NCI-H1666
- relative viability (CX-5461 + Navitoclax; first compound 0.01 µM): 0.967
- relative viability (CX-5461 + Navitoclax; first compound 0.03162 µM): 1
- relative viability (CX-5461 + Navitoclax; first compound 0.3162 µM): 0.766
- relative viability (CX-5461 + Navitoclax; first compound 1 µM): 0.397
- relative viability (CX-5461 + Lapatinib; first compound 0.01 µM): 0.733
- relative viability (CX-5461 + Lapatinib; first compound 0.03162 µM): 0.637
- relative viability (CX-5461 + Lapatinib; first compound 0.3162 µM): 0.55
- relative viability (CX-5461 + Lapatinib; first compound 1 µM): 0.398
- relative viability (IMD-0354 + Luminespib; first compound 0.04 µM): 1.06
- relative viability (IMD-0354 + Luminespib; first compound 0.1265 µM): 1.06
- relative viability (IMD-0354 + Luminespib; first compound 0.4 µM): 0.963
- relative viability (IMD-0354 + Luminespib; first compound 1.265 µM): 0.499
- relative viability (IMD-0354 + Luminespib; first compound 4 µM): 0.369
- relative viability (IMD-0354 + Dasatinib; first compound 0.04 µM): 0.94
- relative viability (IMD-0354 + Dasatinib; first compound 0.1265 µM): 0.912
- relative viability (IMD-0354 + Dasatinib; first compound 0.4 µM): 0.651
- relative viability (IMD-0354 + Dasatinib; first compound 1.265 µM): 0.345
- relative viability (IMD-0354 + Dasatinib; first compound 4 µM): 0.351
